Data published in paper PMC13410438, “Self‐Assembling Cationic Lipopeptides for the Construction of Functional Vesicular Gene‐Delivery Systems” (Small (Weinheim an Der Bergstrasse, Germany), 2026).
Square brackets hold non-standard residues; d marks the D form. Peptide text beside a SMILES is read from it. * marks the point of attachment. Oleoyl = CCCCCCCC/C=C\CCCCCCCC(=O)*; Dap = NC[C@H](N)C(=O)O

Key:
[1] = system: iMSCs; test: Cell viability (CCK8) after lipopeptide/placZ transfection; format: cell-based; conditions: 24 h
Description: (§1) Lipopeptide (LP1 or LP2) was dissolved in MeOH in order to create a lipid film with a desired concentration. Afterwards, the organic solvent was removed under nitrogen flow, obtaining the corresponding lipid film. The film was then hydrated with 1 mL of OptiMEM Reduced Serum Medium (1X). Lipopeptide/pDNA complexes were then formed by mixing placZ or pGFP plasmid (742 ng) with the corresponding lipopeptide (LP1 or LP2) solution to obtain various concentrations (2.5–50 µg/mL), thus being able to carry out different analysis. All mixtures were allowed to complex for 30 min at rt before being used in different experiments. Lipofectamine was used as positive control; their corresponding lipoplexes were prepared with the same plasmid concentrations and the recommended reagent volume, according to the manufacturer instructions.
(§2) HEK 293T (75000 cells/well in 48 well‐plates) or iMSCs (10000 cells/well in 96 well‐plates) were allowed to attach for 24 h at 37 °C before the experiments. Then, cells were transfected with lipopeptide (LP1 or LP2)/pDNA (placZ or pGFP) complexes and incubated for 24 h at 37 °C and 5% CO2. Untransfected cells (negative control) or cells transfected with Lipofectamine (positive control) were assessed in parallel. All conditions were evaluated by quadrupled.
(§3) Viability of the cell monolayers was monitored at 24 h using the CCK8 reagent, following the supplier's instructions (Neo Biotech, France). Briefly, cells were washed with 1X PBS (pH 7.4), and then incubated with CCK8 reagent (100 µL; 1:10 dilution in DMEM) for at least 2 h at 37 °C and 5% CO2. The absorbance (Abs) signal at 450 nm was measured in a Sinergy HTX Plate reader. Cell viability was obtained with the following formula: Cellviability%=Abssample450nm/Abscontrol450nm×100

[2] = system: HEK 293T cells; test: as above; format: cell-based; conditions: 24 h
Description: as §1, §2, §3

[3] = system: iMSCs; test: Cell viability after pGFP transfection (cell number vs untransfected control); format: cell-based; conditions: pGFP complexes, LP1 100 µg/mL, LP2 40 µg/mL
Description: In parallel, in situ transfection of iMSCs was evaluated by confocal microscopy (Nikon, Tokyo, Japan) based on GFP expression (Figure 7a). Transfection efficiency was quantified using ImageJ software by calculating the percentage of GFP‐positive cells relative to the total number of cells in four randomly selected fields per condition (Figure 7b). Cell viability was determined by comparing the number of cells in each sample with that of the untransfected control (Figure 7c).

CCCCCCCC/C=C\CCCCCCCC(=O)NC[C@H](NC(=O)CCCCCCC/C=C\CCCCCCCC)C(=O)N[C@@H](CCCCN)C(=O)N[C@@H](CCCCN)C(=O)N[C@@H](CCCCN)C(=O)O [LP1, Dioleoyl‐DapKKK] (Oleoyl-[Dap](Oleoyl)KKK-OH)
Z-potential: 25.2 mV
cell viability [1]: above 75%
cell viability [2]: above 75%
cytotoxicity / cell viability compared with LPF [3]: higher cytotoxicity than LPF

CCCCCCCC/C=C\CCCCCCCC(=O)NCCCC[C@H](NC(=O)CCCCCCC/C=C\CCCCCCCC)C(=O)N[C@@H](CCCCN)C(=O)N[C@@H](CCCCN)C(=O)N[C@@H](CCCCN)C(=O)O [LP2, Dioleoyl‐KKKK] (Oleoyl-K(Oleoyl)KKK-OH)
Z-potential: 25.2 mV
cell viability [1]: above 75%
cell viability [2]: above 75%
cytotoxicity / cell viability compared with LPF [3]: higher than in the LPF group
